Measured values taken from US9321756B2, “Azole compounds as PIM inhibitors” (priority 2011, dated 2016).
Like-named read-outs stand apart in the source and are kept apart here.

Legend:
[1] = molecular target: full length recombinant Pim-1 (Homo sapiens (Human), UniProt P11309); assay: Pim enzyme assay (HTRF, phosphorylation of biotinylated-BAD (S112) peptide), Pim-1; format: biochemical
[2] = molecular target: full length recombinant Pim-2 (Homo sapiens (Human), UniProt Q9P1W9); assay: Pim enzyme assay (HTRF, phosphorylation of biotinylated-BAD (S112) peptide), Pim-2; format: biochemical; conditions: read-out: Pim2_IC50
[3] = Pim-1 enzyme assay, read-out: Pim_1_IC50
[4] = HTRF, 10-point curve, high dose 1 uM, 2 h at RT, read-out: Pim_1_IC50
[5] = HTRF, 10-point curve, high dose 1 uM, 45 min at RT

full length recombinant Pim-1, sequence (P11309 whole entry): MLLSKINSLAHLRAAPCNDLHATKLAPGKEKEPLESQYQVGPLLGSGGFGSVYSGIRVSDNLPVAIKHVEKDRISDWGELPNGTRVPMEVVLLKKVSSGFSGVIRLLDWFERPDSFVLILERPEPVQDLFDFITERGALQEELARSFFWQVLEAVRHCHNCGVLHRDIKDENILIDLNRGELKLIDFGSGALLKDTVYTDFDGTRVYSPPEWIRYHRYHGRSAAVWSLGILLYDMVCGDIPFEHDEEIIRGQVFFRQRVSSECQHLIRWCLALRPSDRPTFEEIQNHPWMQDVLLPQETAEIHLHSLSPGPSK
full length recombinant Pim-2, sequence (Q9P1W9 whole entry): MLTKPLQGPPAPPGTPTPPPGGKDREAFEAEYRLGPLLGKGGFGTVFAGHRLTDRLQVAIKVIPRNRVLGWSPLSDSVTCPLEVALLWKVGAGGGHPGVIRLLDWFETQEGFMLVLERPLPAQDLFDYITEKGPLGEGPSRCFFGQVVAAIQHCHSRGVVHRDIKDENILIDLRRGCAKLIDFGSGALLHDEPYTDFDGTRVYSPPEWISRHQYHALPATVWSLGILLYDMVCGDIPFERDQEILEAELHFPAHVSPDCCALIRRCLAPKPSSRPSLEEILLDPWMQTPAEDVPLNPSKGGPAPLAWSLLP

CC(C)Oc1cccc(-c2c[nH]c3ccc(-c4noc(N)n4)cc23)n1 [Example 69, 3-(3-(6-isopropoxypyridin-2-yl)-1H-indol-5-yl)-1,2,4-oxadiazol-5-amine]
IC50 [1, 3]: 241 nM | IC50 ([2]; Pim-2 enzyme assay): 668 nM

CS(=O)(=O)c1ccc(-c2c[nH]c3ccc(-c4nnc(N)o4)cc23)nc1 [Example 284, 5-(3-(5-(methylsulfonyl)-2-pyridinyl)-1H-indol-5-yl)-1,3,4-oxadiazol-2-amine 2,2,2-trifluoroacetate]
IC50 [1, 4]: 515 nM | IC50 [2]: 555 nM

CNC(=O)c1cncc(-c2c[nH]c3ccc(-c4nnc(NC(C)C)o4)cc23)c1 [Example 286, 5-(5-(5-(isopropylamino)-1,3,4-oxadiazol-2-yl)-1H-indol-3-yl)-N-methylnicotinamide]
IC50 [1, 4]: 713 nM | IC50 [2, 5]: 843 nM

CC(C)Nc1nnc(-c2ccc3[nH]cc(-c4nccc(C(N)=O)n4)c3c2)o1 [Example 261, 2-(5-(5-((1-methylethyl)amino)-1,3,4-oxadiazol-2-yl)-1H-indol-3-yl)-4-pyrimidinecarboxamide]
IC50 [1]: 105 nM | IC50 ([2]; Pim-2 enzyme assay): 70.8 nM

CNC(=O)c1cccc(-c2c[nH]c3ccc(-c4nnc(NC(C)C)o4)cc23)n1 [Example 285, 6-(5-(5-(isopropylamino)-1,3,4-oxadiazol-2-yl)-1H-indol-3-yl)-N-methylpicolinamide]
IC50 [1, 4]: 401 nM | IC50 [2, 5]: 760 nM

CCN(C)c1cnc(-c2c[nH]c3ccc(-c4nnc(N)s4)cc23)cn1 [Example 188, 5-(5-(5-amino-1,3,4-thiadiazol-2-yl)-1H-indol-3-yl)-N-ethyl-N-methyl-2-pyrazinamine]
IC50 [1, 3]: 398 nM | IC50 ([2]; Pim-2 enzyme assay): 1220 nM

CC(C)Oc1cncc(-c2c[nH]c3ccc(-c4noc(N)n4)cc23)n1 [Example 71, 3-(3-(6-isopropoxypyrazin-2-yl)-1H-indol-5-yl)-1,2,4-oxadiazol-5-amine]
IC50 [1, 3]: 69.5 nM | IC50 ([2]; Pim-2 enzyme assay): 538 nM

CNC(=O)c1ccc(F)c(-c2c[nH]c3ccc(-c4nnc(NC(C)C)o4)cc23)c1 [Example 289, 4-fluoro-3-(5-(5-(isopropylamino)-1,3,4-oxadiazol-2-yl)-1H-indol-3-yl)-N-methylbenzamide]
IC50 [1]: 233 nM | IC50 [2, 5]: 301 nM

COc1nccc(-c2c[nH]c3ccc(-c4nnc(NC(C)C)o4)cc23)n1 [Example 297, 5-(3-(2-methoxy-4-pyrimidinyl)-1H-indol-5-yl)-N-(1-methylethyl)-1,3,4-oxadiazol-2-amine]
IC50 [1, 4]: 39.2 nM | IC50 [2, 5]: 73.8 nM

CC(C)Nc1nnc(-c2ccc3[nH]cc(-c4nc(C(=O)O)cc(C5CC5)n4)c3c2)o1 [Example 47, 6-cyclopropyl-2-(5-(5-(isopropylamino)-1,3,4-oxadiazol-2-yl)-1H-indol-3-yl)pyrimidine-4-carboxylic acid]
IC50 [1, 3]: 20.1 nM | IC50 ([2]; Pim-2 enzyme assay): 1.16 nM

CC(C)Nc1nnc(-c2ccc3[nH]cc(-c4ncc(F)c(C5CC5)n4)c3c2)o1 [Example 262, 5-(3-(4-cyclopropyl-5-fluoro-2-pyrimidinyl)-1H-indol-5-yl)-N-(1-methylethyl)-1,3,4-oxadiazol-2-amine]
IC50 [1, 3]: 2.53 nM | IC50 ([2]; Pim-2 enzyme assay): 2.77 nM

CC(C)Nc1nnc(-c2ccc3[nH]cc(-c4nccc(OC5CCCN(C)C5)n4)c3c2)o1 (centres unmarked) [Example 62, N-isopropyl-5-(3-(4-((1-methylpiperidin-3-yl)oxy)pyrimidin-2-yl)-1H-indol-5-yl)-1,3,4-oxadiazol-2-amine 2,2,2-trifluoroacetate]
IC50 [1, 3]: 69.5 nM | IC50 [2]: 207 nM

Nc1nnc(-c2ccc3[nH]cc(-c4ccccc4F)c3n2)o1 [Example 9, 5-(3-(2-fluorophenyl)-1H-pyrrolo[3,2-b]pyridin-5-yl)-1,3,4-oxadiazol-2-amine]
IC50 [1, 3]: 644 nM | IC50 ([2]; Pim-2 enzyme assay): 717 nM

CC(C)Nc1nnc(-c2ccc3[nH]cc(-c4cncc(C(=O)NC5CC5)c4)c3c2)o1 [Example 299, N-cyclopropyl-5-(5-(5-((1-methylethyl)amino)-1,3,4-oxadiazol-2-yl)-1H-indol-3-yl)-3-pyridinecarboxamide]
IC50 [1, 4]: 767 nM | IC50 [2, 5]: 299 nM

CC(C)Nc1nnc(-c2ccc3[nH]cc(-c4ccc(C(N)=O)cc4F)c3c2)o1 [Example 290, 3-fluoro-4-(5-(5-(isopropylamino)-1,3,4-oxadiazol-2-yl)-1H-indol-3-yl)benzamide]
IC50 [1]: 69.6 nM | IC50 [2, 5]: 238 nM

CCc1nc(-c2c[nH]c3ccc(-c4nnc(NC(C)(C)C)o4)cc23)ncc1F [Example 57, N-tert-butyl-5-(3-(4-ethyl-5-fluoropyrimidin-2-yl)-1H-indol-5-yl)-1,3,4-oxadiazol-2-amine]
IC50 [1, 3]: 5.79 nM | IC50 ([2]; Pim-2 enzyme assay): 21 nM

CC1(C)COCCN1c1nnc(-c2ccc3[nH]cc(-c4cncc(C5CC5)n4)c3c2)o1 [Example 253, 3-(6-cyclopropyl-2-pyrazinyl)-5-(5-(3,3-dimethyl-4-morpholinyl)-1,3,4-oxadiazol-2-yl)-1H-indole]
IC50 [1, 3]: 26.7 nM | IC50 ([2]; Pim-2 enzyme assay): 141 nM

CC(C)Nc1cncc(-c2c[nH]c3ccc(-c4noc(N)n4)cc23)n1 [Example 70, 3-(3-(6-(isopropylamino)pyrazin-2-yl)-1H-indol-5-yl)-1,2,4-oxadiazol-5-amine]
IC50 [1, 3]: 30.4 nM | IC50 ([2]; Pim-2 enzyme assay): 362 nM

CNc1nnc(-c2ccc3[nH]cc(-c4ccccc4)c3c2)s1 [Example 223, N-methyl-5-(3-phenyl-1H-indol-5-yl)-1,3,4-thiadiazol-2-amine]
IC50 [1, 3]: 1140 nM | IC50 ([2]; Pim-2 enzyme assay): 1950 nM

c1ccc(Nc2nnc(-c3ccc4[nH]cc(-c5cncc(C6CC6)n5)c4c3)o2)cc1 [Example 40, 5-(3-(6-Cyclopropylpyrazin-2-yl)-1H-indol-5-yl)-N-phenyl-1,3,4-oxadiazol-2-amine]
IC50 [1, 3]: 105 nM | IC50 ([2]; Pim-2 enzyme assay): 215 nM

Cc1cncc(-c2c[nH]c3ccc(-c4nnc(-c5ccccc5)s4)cc23)n1 [Example 274, 3-(6-methyl-2-pyrazinyl)-5-(5-phenyl-1,3,4-thiadiazol-2-yl)-1H-indole]
IC50 [1]: > 1000 nM | IC50 ([2]; Pim-2 enzyme assay): > 1000 nM

CCOc1nc(-c2c[nH]c3ccc(-c4nnc(NC(C)C)o4)cc23)ncc1F [Example 259, 5-(3-(4-ethoxy-5-fluoro-2-pyrimidinyl)-1H-indol-5-yl)-N-(1-methylethyl)-1,3,4-oxadiazol-2-amine]
IC50 [1, 3]: 30.4 nM | IC50 ([2]; Pim-2 enzyme assay): 36.9 nM

Cc1ccnc(-c2c[nH]c3ccc(-c4nnc(NC(C)(C)C)o4)cc23)n1 [Example 270, N-tert-butyl-5-(3-(4-methyl-2-pyrimidinyl)-1H-indol-5-yl)-1,3,4-oxadiazol-2-amine]
IC50 [1, 3]: 8.77 nM | IC50 ([2]; Pim-2 enzyme assay): 34.8 nM

COc1nc(-c2c[nH]c3ccc(-c4nnc(NC(C)C)o4)cc23)nc(C)c1F [Example 260, 5-(3-(5-fluoro-4-methoxy-6-methyl-2-pyrimidinyl)-1H-indol-5-yl)-N-(1-methylethyl)-1,3,4-oxadiazol-2-amine]
IC50 [1, 3]: 159 nM | IC50 ([2]; Pim-2 enzyme assay): 106 nM

CC(C)Nc1nnc(-c2ccc3[nH]cc(-c4nc(C(=O)NC5CC5)cs4)c3c2)o1 [Example 278, N-cyclopropyl-2-(5-(5-((1-methylethyl)amino)-1,3,4-oxadiazol-2-yl)-1H-indol-3-yl)-1,3-thiazole-4-carboxamide]
IC50 [1, 4]: 186 nM | IC50 [2, 5]: 408 nM

CC(C)Nc1nnc(-c2ccc3[nH]cc(-c4nc(C5CC5)n[nH]4)c3c2)o1 [Example 263, 5-(3-(3-cyclopropyl-1H-1,2,4-triazol-5-yl)-1H-indol-5-yl)-N-(1-methylethyl)-1,3,4-oxadiazol-2-amine]
IC50 [1, 3]: 241 nM | IC50 ([2]; Pim-2 enzyme assay): 383 nM

CC(C)(C)Nc1nnc(-c2ccc3[nH]cc(-c4nccc(C5CC5)n4)c3c2)o1 [Example 54, N-tert-butyl-5-(3-(4-cyclopropylpyrimidin-2-yl)-1H-indol-5-yl)-1,3,4-oxadiazol-2-amine 2,2,2-trifluoroacetate]
IC50 [1, 3]: 1.58 nM | IC50 [2]: 2.4 nM

CC(C)Nc1nnc(-c2ccc3[nH]cc(-c4cccc(C(=O)N(C)C)n4)c3c2)o1 [Example 292, N,N-dimethyl-6-(5-(5-((1-methylethyl)amino)-1,3,4-oxadiazol-2-yl)-1H-indol-3-yl)-2-pyridinecarboxamide]
IC50 [1, 4]: 496 nM | IC50 [2, 5]: 541 nM

COc1ccnc(-c2c[nH]c3ccc(-c4nnc(NC(C)C)o4)cc23)n1 [Example 59, N-isopropyl-5-(3-(4-methoxypyrimidin-2-yl)-1H-indol-5-yl)-1,3,4-oxadiazol-2-amine]
IC50 [1, 3]: 30.4 nM | IC50 ([2]; Pim-2 enzyme assay): 16.7 nM

CC(C)Nc1nnc(-c2ccc3[nH]cc(-c4nccc(C(=O)NC5CC5)n4)c3c2)o1 [Example 283, N-cyclopropyl-2-(5-(5-((1-methylethyl)amino)-1,3,4-oxadiazol-2-yl)-1H-indol-3-yl)-4-pyrimidinecarboxamide 2,2,2-trifluoroacetate]
IC50 [1, 4]: 517 nM | IC50 [2, 5]: 453 nM

CC(C)Oc1cccc(-c2c[nH]c3ccc(-c4nc(N)ns4)cc23)n1 [Example 63, 5-(3-(6-isopropoxypyridin-2-yl)-1H-indol-5-yl)-1,2,4-thiadiazol-3-amine]
IC50 [1, 3]: 551 nM | IC50 ([2]; Pim-2 enzyme assay): 400 nM

CC(C)Nc1nnc(-c2ccc3[nH]cc(-c4ncc(C(=O)NC5CC5)s4)c3c2)o1 [Example 275, N-cyclopropyl-2-(5-(5-((1-methylethyl)amino)-1,3,4-oxadiazol-2-yl)-1H-indol-3-yl)-1,3-thiazole-5-carboxamide]
IC50 [1, 4]: 259 nM | IC50 [2, 5]: 705 nM

CC(C)Nc1cncc(-c2c[nH]c3ccc(-c4nc(N)no4)cc23)n1 [Example 67, 5-(3-(6-(isopropylamino)pyrazin-2-yl)-1H-indol-5-yl)-1,2,4-oxadiazol-3-amine]
IC50 [1, 3]: 5.79 nM | IC50 [2]: 58.9 nM

CC(C)Nc1nc(-c2ccc3[nH]cc(-c4cncc(OC(C)C)n4)c3c2)no1 [Example 73, 3-(3-(6-isopropoxypyrazin-2-yl)-1H-indol-5-yl)-N-isopropyl-1,2,4-oxadiazol-5-amine]
IC50 [1, 3]: 45.9 nM | IC50 [2]: 504 nM
